From patent US11337950B2, “Biologically active cannabidiol analogs” (University of Mississippi, priority 2016, dated 2022)
Values joined by “and” are separate entries in the source; they are usually repeats but may differ in a detail not shown here. Identical values can stand only once. Like-named read-outs stand apart in the source and are kept apart here.

Experiments:
[1] = Bioavailability of CBD-Mono-VHS from a hydrophilic suppository, PEG 1000 (Example 17); format: in vivo; parameters: unit not given here; settings: rats, rectal 7.5 mg, Hydrophilic (PEG 1000) Suppository; for Plasma Concentration of CBD-Mono-VHS: individual animals
Description: CBD-Mono-Val-Mono-HS was formulated in PEG 1000 suppository base (a hydrophilic suppository base) at 75 mg/mL of melted base. The study was carried out in a cannulated rat model. Three animals were administered 100 μl. each of the semisolid formulation for a rectal dose of 7.5 mg CBD-Mono-VHS. […] The blood was centrifuged and the plasma was used for LC-MS/MS analysis.

[2] = Organ distribution of CBD-Mono-VHS after oral administration (Example 19); format: in vivo, rats; settings: rat, oral 4 mg/animal
Description: To determine whether CBD-Mono-VHS reaches the organs and especially the brain, two cannulated rats were administered same dose as those in Example 18. One rat was sacrificed at 2 hr. after dosing and the other at 4 hr. after dosing and the organs were harvested (brain, liver, and spleen) as well as blood for analysis.

[3] = In vivo eye tissue levels 90 min after topical application in Tocrisolve emulsion (Examples 12-14); parameters: species or system New Zealand albino rabbits
Description: Conscious male New Zealand albino rabbits were used. The formulations were applied topically into the rabbits eyes (50 μL containing the equivalent of 250 μg CBD) in Tocrisolve® emulsion formulations as described in Example 11. The animals were sacrificed 90 min. after drug application and the eye tissues harvested for analysis.
The same procedure was followed as shown under Example 12. Additional CBD analogs were tested in this example. In this example the tissue levels of both free CBD and intact analog were determined.
Formulations: Fifty microlitres of 0.5% w/v CBD in Tocrisolve emulsion (Dose: 0.25 mg)
Animal model: Conscious male new Zealand albino rabbits, Duration of the study: 90 min.
Aqueous humor, Vitreous humor, Retina-Choroid and Iris-Ciliary bodies analysed for parent compound as well as CBD.
Formulations: Fifty microlitres of 0.5% w/v Tocrisolve emulsion formulations (Dose: 0.25 mg)
Animal model: Conscious male new Zealand albino rabbits, Duration of the study: 90 min

[4] = format: physicochemical; settings: for Concentration of CBD-Mono-Val-Mono-HS: 37° C.
Description: The stability CBD and CBD analogs (CBD-Mono-VHS and CBD-Di-VHS) was evaluated under acidic and alkaline conditions to simulate exposure to gastric and intestinal fluids. The procedure is outlined as follows: • 1. Stock solution of 5 mg/mL CBD, CBD-Mono-Val-Mono HS, CBD-Di-Val-Di HS was prepared. • 2. Simulated Gastric Fluid (pH 1.2)+1% (SDS) was prepared and kept in 37° C. water bath. • 3. Physiological buffer (pH 7.4)+1% SDS was prepared and kept in 37° C. water bath. • 4. 100 μL of CBD, CBD-Mono-Val-Mono HS or CBD-Di-Val-Di-HS stock in acetonitrile (equivalent to 500 μg) was spiked into separate vials containing 5 ml of either pH 1.2 and 7.4. • 5. At each time point, 100 μL of the solution was withdrawn. • 6. 900 μL acetonitrile was added to each sample. • 7. All samples centrifuged at 4° C. and 13,000 rpm. • 8. 100 μL of the supernatant was withdrawn; to this 100 μL of supernatant, 900 μL of acetonitrile was added and placed in LC vials for analysis. Tables 9, 10 and 11, and FIGS. 7a, 7b, 18, and 19 show the results.

[5] = Oral bioavailability of CBD-Mono-VHS in sesame seed oil (Example 18); format: in vivo; settings: rats; for Plasma Concentration of CBD-Mono-VHS, Average / Plasma Concentration of CBD-Mono-VHS: oral 4 mg/animal in sesame seed oil; for Plasma Concentration of CBD-Mono-VHS: individual animals
Description: CBD-Mono-VHS was formulated in a sesame seed oil (Welch, Holme and Clark Co. lot #39375) formulation composed of 40 mg/mL solution of the drug substance/mi. Animals (cannulated rats, n=4) were dosed 100 μl of the oil solution by oral gavage. Blood samples were collected at 0, 0.25, 0.5, 1, 2, 4, 6, 8, and 24 hr. after dosing. The blood samples were centrifuged and the plasma was analyzed for CBD-Mono-VHS. Table 7 and FIG. 5 show the results, with very high blood levels which remain significant (>10 ng/mL) at 24 hr. after dosing.

[6] = Table 3, Set 1, rabbit eye, 90 min post topical 50 μL Tocrisolve emulsion, dose 0.25 mg CBD
[7] = Table 4, Set 2, rabbit, 90 min post topical 50 μL Tocrisolve emulsion, dose 250 μg
[8] = rabbit eye, 90 min post topical, 0.25 mg CBD

For `C=C(C)C1CCC(C)=CC1c1c(O)cc(CCCCC)cc1OC(=O)[C@@H](NC(=O)CCC(=O)O)C(C)C` (stereo partly shown) [CBD-Mono-VHS, CBD-Mono-Valinate-Mono-Hemisuccinate], the “Plasma Concentration of CBD-Mono-VHS, Average” value (“Plasma Concentration … Average” below) ([1]; 0 hr) was 0.0, the “Plasma Concentration of CBD-Mono-VHS” value ([1]; 0 hr) was 0.0 and the “Plasma Concentration … Average” value ([1]; 0.25 hr) was 13.2. For the same compound, the “Plasma Concentration of CBD-Mono-VHS” value ([1]; 0.25 hr) was 14.7 and 10.1 and 14.8, the “Plasma Concentration … Average” value ([1]; 0.5 hr) was 38.5 and the “Plasma Concentration of CBD-Mono-VHS” value ([1]; 0.5 hr) was 44.2 and 38.4 and 32.9. The “Plasma Concentration … Average” value ([1]; 1 hr) was 89.4, the “Plasma Concentration of CBD-Mono-VHS” value ([1]; 1 hr) was 106.0 and 54.3 and 108.0 and the “Plasma Concentration … Average” value ([1]; 2 hr) was 114.7. The “Plasma Concentration of CBD-Mono-VHS” value ([1]; 2 hr) was 108.0 and 123.0 and 113.0, the “Plasma Concentration … Average” value ([1]; 4 hr) was 57.2 and the “Plasma Concentration of CBD-Mono-VHS” value ([1]; 4 hr) was 57.5 and 60.5 and 53.5. The “Plasma Concentration … Average” value ([1]; 6 hr) was 28.7, the “Plasma Concentration of CBD-Mono-VHS” value ([1]; 6 hr) was 18.6 and 37.4 and 30.1 and the “Plasma Concentration … Average” value ([1]; 8 hr) was 24.0. For the same compound, the “Plasma Concentration of CBD-Mono-VHS” value ([1]; 8 hr) was 44.8 and 21.6 and 27.3, the “Plasma Concentration … Average” value ([1]; 24 hr) was 0.9 and the “Plasma Concentration of CBD-Mono-VHS” value ([1]; 24 hr) was 0.0 and 2.5 and 2.6. For the same compound, the “Organ level of CBD-Mono-VHS, BRAIN” value ([2]; 2 HR) was 556 ng/organ, the “Organ level of CBD-Mono-VHS, LIVER” value ([2]; 2 HR) was 66484 ng/organ and the “Organ level of CBD-Mono-VHS, SPLEEN” value ([2]; 2 HR) was 1438 ng/organ. The “Plasma level of CBD-Mono-VHS” value ([2]; 2 HR) was 0.285 µg/mL, the “Organ level of CBD-Mono-VHS, BRAIN” value ([2]; 4 HR) was 205 ng/organ and the “Organ level of CBD-Mono-VHS, LIVER” value ([2]; 4 HR) was 8301 ng/organ. For the same compound, the “Organ level of CBD-Mono-VHS, SPLEEN” value ([2]; 4 HR) was 392 ng/organ, the “Plasma level of CBD-Mono-VHS” value ([2]; 4 HR) was 0.053 µg/mL and the “Analog Conc., AQ Humor” value [3, 6] was 90.3 ± 13.6 ng/g of tissue. The “Analog Conc., Iris Ciliary Bodies” value [3, 6] was 1034 ± 87.4 ng/g of tissue, the “Analog Conc., Retina Choroid” value [3, 6] was 689 ± 127 ng/g of tissue and the “CBD Conc., Iris Ciliary Bodies” value [3, 6] was 353 ± 43^ ng/g of tissue. For the same compound, the “CBD Conc., Retina Choroid” value [3, 6] was 194 ± 31.2 ng/g of tissue, the “Analog Concentration, Aqueous Humor” value [3, 7] was 98.7 ± 19.8 ng/g of tissue and the “Analog Concentration, Iris Ciliary Bodies” value [3, 7] was 422 ± 197 ng/g of tissue. For the same compound, the “Analog Concentration, Retina Choroid” value [3, 7] was 519 ± 476 ng/g of tissue, the “CBD concentration, Aqueous Humor” value [3, 7] was 61.3 ± 5.9 ng/g of tissue and the “CBD concentration, Iris Ciliary Bodies” value [3, 7] was 585 ± 103 ng/g of tissue. For the same compound, the “CBD concentration, Retina Choroid” value [3, 7] was 503 ± 373 ng/g of tissue, the “Ocular tissue levels of free CBD, in words (Example 13)” value [3, 8] was “high levels of Free CBD in the retina choroid and iris-ciliary bodies” and the “Ocular tissue levels of the applied substance, in words (Example 13)” value [3, 8] was “detected in high concentration in the aqueous humor, retina choroid and iris-ciliary bodies”. For the same compound, the “Penetration into the ocular tissues, in words (Example 14)” value ([3]; rabbit eye, topical Tocrisolve emulsion) was “superior analog for penetration into the different tissues of the eye”, the “Concentration of CBD-Mono-Val-Mono-HS” value ([4]; Acid (pH 1.2), Time Point 0) was 0.941 µg/mL and the “Concentration of CBD-Mono-Val-Mono-HS” value ([4]; Acid (pH 1.2), Time Point 15) was 1.38 µg/mL. For the same compound, the “Concentration of CBD-Mono-Val-Mono-HS” value ([4]; Acid (pH 1.2), Time Point 30) was 1.472 µg/mL, the “Concentration of CBD-Mono-Val-Mono-HS” value ([4]; Acid (pH 1.2), Time Point 60) was 1.579 µg/mL and the “Concentration of CBD-Mono-Val-Mono-HS” value ([4]; Acid (pH 1.2), Time Point 90) was 1.478 µg/mL. For the same compound, the “Concentration of CBD-Mono-Val-Mono-HS” value ([4]; Acid (pH 1.2), Time Point 120) was 1.519 µg/mL, the “Concentration of CBD-Mono-Val-Mono-HS” value ([4]; Base (pH 7.4), Time Point 0) was 0.886 µg/mL and the “Concentration of CBD-Mono-Val-Mono-HS” value ([4]; Base (pH 7.4), Time Point 15) was 1.439 µg/mL. For the same compound, the “Concentration of CBD-Mono-Val-Mono-HS” value ([4]; Base (pH 7.4), Time Point 30) was 1.197 µg/mL, the “Concentration of CBD-Mono-Val-Mono-HS” value ([4]; Base (pH 7.4), Time Point 60) was 1.791 µg/mL and the “Concentration of CBD-Mono-Val-Mono-HS” value ([4]; Base (pH 7.4), Time Point 90) was 1.615 µg/mL. The “Concentration of CBD-Mono-Val-Mono-HS” value ([4]; Base (pH 7.4), Time Point 120) was 1.731 µg/mL, the “Stability under acidic (gastric juice) conditions, in words” value ([4]; pH 1.2, 37° C.) was “stable” and the “Stability under physiologic / intestinal juice conditions, in words” value ([4]; pH 7.4, 37° C.) was “stable”. The “Plasma Concentration … Average” value ([5]; 0 hr) was 0 µg/mL, the “Plasma Concentration of CBD-Mono-VHS” value ([5]; 0 hr) was 0 µg/mL and the “Plasma Concentration … Average” value ([5]; 0.25 hr) was 1.029 µg/mL. For the same compound, the “Plasma Concentration of CBD-Mono-VHS” value ([5]; 0.25 hr) was 1.2555 µg/mL and 1.5123 µg/mL and 0.3702 µg/mL and 0.978 µg/mL, the “Plasma Concentration … Average” value ([5]; 0.5 hr) was 1.6263 µg/mL and the “Plasma Concentration of CBD-Mono-VHS” value ([5]; 0.5 hr) was 1.1748 µg/mL and 2.655 µg/mL and 1.4371 µg/mL and 1.2382 µg/mL. The “Plasma Concentration … Average” value ([5]; 1 hr) was 2.1275 µg/mL, the “Plasma Concentration of CBD-Mono-VHS” value ([5]; 1 hr) was 1.4006 µg/mL and 3.1209 µg/mL and 2.4966 µg/mL and 1.492 µg/mL and the “Plasma Concentration … Average” value ([5]; 2 hr) was 0.5935 µg/mL. For the same compound, the “Plasma Concentration of CBD-Mono-VHS” value ([5]; 2 hr) was 0.3922 µg/mL and 1.3173 µg/mL and 0.3995 µg/mL and 0.2648 µg/mL, the “Plasma Concentration … Average” value ([5]; 4 hr) was 0.2348 µg/mL and the “Plasma Concentration of CBD-Mono-VHS” value ([5]; 4 hr) was 0.1151 µg/mL and 0.4233 µg/mL and 0.1161 µg/mL and 0.2848 µg/mL. The “Plasma Concentration … Average” value ([5]; 6 hr) was 0.212 µg/mL, the “Plasma Concentration of CBD-Mono-VHS” value ([5]; 6 hr) was 0.0714 µg/mL and 0.181 µg/mL and 0.3978 µg/mL and 0.1978 µg/mL and the “Plasma Concentration … Average” value ([5]; 8 hr) was 0.1522 µg/mL. For the same compound, the “Plasma Concentration of CBD-Mono-VHS” value ([5]; 8 hr) was 0.0446 µg/mL and 0.0898 µg/mL and 0.21 µg/mL and 0.2644 µg/mL, the “Plasma Concentration … Average” value ([5]; 24 hr) was 0.0272 µg/mL and the “Plasma Concentration of CBD-Mono-VHS” value ([5]; 24 hr) was 0.0065 µg/mL and 0.0378 µg/mL and 0.0471 µg/mL and 0.0175 µg/mL. The “blood levels which remain significant at 24 hr. after dosing” value ([5]; oral 4 mg/animal, 24 hr) was greater than 0.01 µg/mL.
